{
  "source": "patent US20210106700A1",
  "about": "“Fractionated Dosing of a Phospholipid Ether Analog for the Treatment of Cancer” (Cellectar Biosciences, Inc., priority 2018, published 2021)",
  "system": "OPM-2 cell line (human multiple myeloma)",
  "assay": "OPM-2 multiple myeloma subcutaneous xenograft in CB17 SCID mice (tumor volume, doubling time, survival, body weight)",
  "assay_type": "in vivo, mouse",
  "conditions": "fractionated dosing",
  "description": "The OPM-2 cell line (human multiple myeloma) was purchased from American Type Culture Collection (ATCC, Rockville, Md.) and maintained in McCoy's 5a media supplemented with 10% fetal bovine serum. Female CB17 SCID mice approximately 5-7 weeks of age were injected subcutaneously with 1×10^7 viable cells (in ˜100 μL Dulbecco's PBS) into the right flank. The study was initiated when tumor size had reached a pre-determined size (approximately 150-200 mm3). The mice were given potassium iodide at a concentration of 0.1% in their drinking water to block possible free iodide in the drug formulation three days prior to injection and continuing through two weeks post-injection. Mice were randomly assigned to dose groups. Tumor volume was measured with a caliper during the course of the study. Tumor doubling time calculation4 TDT=D×log(2)/log(1+r/100), where D equals days between measurements and r=rate of growth; r/100=(V2−V1/V1)×100%. Statistical analysis: 1-way Anova, Dunnett's test.",
  "data": [
    {"substance": "^131I-labeled 18-(p-iodo-phenyl)octadecyl phosphocholine [CLR 131]", "values": [
      {"measurement": "Tumor volume vs control", "setting": "after day 26", "result": "statistically significant reduction"},
      {"measurement": "Tumor volume vs all other treatments", "setting": "at day 52, p<0.05", "result": "statistically significant reduction"}
    ]}
  ]
}
